Data on 1 compound can be found in patent US8519061B2, “Controlled release remediation system and composition” (North Carolina A&T State University, priority 2008, dated 2013).

The test system of this assay is E. coli. Kind of assay: E. coli colony counts, Membrane Filter Count Method, Country Park Lake water. The class given is cell-based, Escherichia coli. As to the method: These pellets were used to evaluate the removal of Escherichia coli (commonly E. coli) from publicly accessible water. […] Recreational use of the publicly accessible water in this area is restricted due to high E. coli concentrations that can lead to illness.
Water samples including control water samples and publicly accessible water samples (from Country Park Lake) at concentrations of 1 ml, 0.1 ml, 0.01 ml, and 0.001 ml were prepared for evaluation.
The water samples were filtered through 5 μm filters and bacteria was cultured in petri dishes with m-Endo broth (e.g., commercially available form BD Diagnostic Systems Sparks, Md.) for 24-hours at 35° C. If E. coli was present in the filtered water sample, metallic purple/red E. coli colonies would grow on the filter in the petri dish. For this analysis, the larger the water sample filtered, the higher the concentration of E. coli which would grow within the 24-hour window. To analyze the amount of E. coli on the filter, the goal was to determine the appropriate water dilution amount to obtain filters where the number of colonies could be counted. If the filter was covered with E. coli, the petri dish was classified as “To numerous to count”. When an acceptable number of countable colonies was obtained, the number of colonies/100 ml was calculated for the water sample.

Turning to `O=S(=O)([O-])OO.[K+]` [Oxone ® compound, potassium hydrogen peroxymonosulfate sulfate (5:3:2:2)], the “E. coli Colony Counts, 0.1 ml dilution plates” value was “No colonies”; the “E. coli Colony Counts, 1 ml dilution plates” value is listed as “No colonies”; the “E. coli Colony Counts, Average 24 hours # colonies/100 ml” value is recorded as “No colonies”; the “Removal of E. coli from treated water” value is reported as “complete removal”.
